From publication PMC13065040 (PLOS One, 2026)
“And” between values parts separate entries of the source, which are not always exact repeats. Equal entries are not always repeated. Where a SMILES comes first, the peptide text is derived from it. Bridges are numbered along the chain shown (N, C = ends).

Key:
[1] = biological target: T1, MMP-2 (Homo sapiens, UniProt P08253); assay: MMP-2 inhibition assay (Enzo kit, OmniMMP RED fluorogenic substrate); format: biochemical
T1 construct: purchased Enzo Life Sciences (MMP-2 drug discovery kit)
Method: The MMP-2 inhibition assay was performed using the Enzo Life Sciences MMP-2 drug discovery kit. and the quenched fluorogenic substrate OmniMMP RED. Reference substrate was diluted to a final concentration of 5 μM, while the MMP-2 enzyme was diluted to 58 mU/µL, and the N-Isobutyl-N-(4-methoxyphenylsulfonyl)glycyl hydroxamic acid (NNGH) inhibitor was diluted to a concentration of 1/200 in assay buffer. […] The assay was performed using a black 96-well microplate. Fluorescence was measured at excitation/emission wavelengths of 545/576 nm, with a cutoff at 570 nm using Gen5 microplate reader (BioTeK, Shoreline, WA). Baseline fluorescence was recorded before adding NNGH inhibitor which was used as a positive control for MMP-2 inhibition. Reaction mixtures in the plate were incubated at 37 °C for 10 min, and fluorescence was measured at 10 min intervals for the first 30 min, then at 30 min intervals until 2 h had elapsed. […] Statistical analysis was performed using ANOVA with GraphPad Prism software, version 10.0.3.

[2] = biological target: T2, Neuropilin-1 (NRP-1) (Homo sapiens, UniProt O14786); assay: Surface plasmon resonance (SPR), immobilized NRP-1; format: binding; details: NTA chip, steady-state affinity model, pH 7.4, n = 3, 4 replicates, read-out: dissociation constant (KD) for NRP-1
T2 construct: containing amino acid residues Phe22-Lys644, with a poly-histidine tag at the C-terminus; purchased ACROBiosystems NR1-H5228
T2 sequence (O14786 22-644 isoform O14786-2): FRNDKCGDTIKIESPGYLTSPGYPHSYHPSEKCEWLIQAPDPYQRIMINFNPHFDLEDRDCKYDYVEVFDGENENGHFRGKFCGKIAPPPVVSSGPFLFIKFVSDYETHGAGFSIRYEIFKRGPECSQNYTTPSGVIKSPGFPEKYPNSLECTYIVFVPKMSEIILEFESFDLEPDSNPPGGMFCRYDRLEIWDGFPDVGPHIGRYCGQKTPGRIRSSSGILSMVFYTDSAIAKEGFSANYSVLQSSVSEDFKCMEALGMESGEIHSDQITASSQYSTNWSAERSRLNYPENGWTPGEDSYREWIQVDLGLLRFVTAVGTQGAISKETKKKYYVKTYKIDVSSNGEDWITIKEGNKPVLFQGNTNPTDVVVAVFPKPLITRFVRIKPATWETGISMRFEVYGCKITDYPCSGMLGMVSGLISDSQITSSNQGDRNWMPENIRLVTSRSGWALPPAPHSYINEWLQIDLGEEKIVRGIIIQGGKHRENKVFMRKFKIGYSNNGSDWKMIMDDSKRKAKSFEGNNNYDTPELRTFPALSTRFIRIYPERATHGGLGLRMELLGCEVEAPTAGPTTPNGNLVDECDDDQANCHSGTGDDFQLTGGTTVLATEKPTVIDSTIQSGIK
Method: Surface plasmon resonance (SPR) reagents, plates, and the NTA chip were purchased from GE Healthcare Life Sciences, now Cytiva (Marlborough, MA, USA). Measurements were performed using the Biacore 8000 SPR System (Marlborough, MA. USA). The running buffer used for protein immobilization and peptide binding consisted of 20 mM Tris, 150 mM NaCl, […] and 0.0005% Tween-20, adjusted to pH 7.4. MMP-2 and NRP-1 were immobilized onto the NTA chip at 15 nM and 25 nM concentration, respectively. Peptides were injected over the immobilized proteins using two-fold serial dilutions from 500 µM to 3.90 µM. Three experiments with four replicates of each were performed. The SPR response curves generated from the Biacore Insight Evaluation Software were fitted to a steady-state affinity model to obtain an equilibrium dissociation constant (KD) for each peptide — protein interaction.

[3] = biological target: T3, MMP-2 (Homo sapiens, UniProt P08253); assay: Differential scanning fluorimetry (DSF); format: binding; parameters: Dtm (ΔTm): unit not given here; details: for Dtm (ΔTm), average: average of replicates
T3 construct: ProSpec Bio; Antibodies-Online; Elabscience; Abcam ENZ-769; ABIN7400042; PKSH033450
T3 sequence (P08253 110-660): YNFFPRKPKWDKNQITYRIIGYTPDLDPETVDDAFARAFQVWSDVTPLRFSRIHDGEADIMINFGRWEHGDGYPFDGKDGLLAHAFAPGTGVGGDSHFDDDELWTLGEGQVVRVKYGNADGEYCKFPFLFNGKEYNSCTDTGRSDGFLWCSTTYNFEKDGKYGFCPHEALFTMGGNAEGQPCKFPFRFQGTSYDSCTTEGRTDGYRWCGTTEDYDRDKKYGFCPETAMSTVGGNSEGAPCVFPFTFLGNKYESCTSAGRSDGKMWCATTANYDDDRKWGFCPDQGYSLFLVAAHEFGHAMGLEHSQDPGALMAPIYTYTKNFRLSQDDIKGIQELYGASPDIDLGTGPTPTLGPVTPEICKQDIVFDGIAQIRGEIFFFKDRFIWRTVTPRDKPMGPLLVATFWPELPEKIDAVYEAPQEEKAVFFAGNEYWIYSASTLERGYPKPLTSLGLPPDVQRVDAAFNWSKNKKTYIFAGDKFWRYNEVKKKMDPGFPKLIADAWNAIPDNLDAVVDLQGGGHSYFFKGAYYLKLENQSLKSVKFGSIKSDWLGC
Method: The melting temperatures (Tm) of recombinant MMP-2 and its complexes with peptides were ascertained using BioRad CFX384 Touch real-time PCR (Hercules, CA, USA). The experiments were performed as previously described. The unfolding of the protein was detected using the fluorescent SYPRO-orange dye (Invitrogen, Carlsbad, CA, USA). MMP-2 and prospective ligand peptides were dissolved in 7.1 pH phosphate buffered saline (154 mM NaCl, 5.6 mM Na2PO4, 1.1 mM KH2PO4), and the reaction mixture was made to a final concentration of 1 µM of protein, either 30 µM ([…]) of peptide, and 1000x dilution of the SYPRO-Orange dye stock from the manufacturer. Excitation and emission filters of the dye were set at 450 − 490 nm and 560 − 580 nm, respectively. The temperature for the reaction was held at 25 °C for 5 min, and then a gradient of 25 °C to 95 °C was applied at a rate of 0.3 °C/min, and the fluorescence was recorded. To determine Tm of the protein, the first derivatives of melting curves were plotted using GraphPad Prism software, version 10.0.3.

[4] = peptide 30, P75/P76 experiment 1, replicate 1
[5] = peptide 30, P75/P76 experiment 1, replicate 2
[6] = peptide 30, P75/P76 experiment 1, replicate 3
[7] = peptide 30, P75/P76 experiment 2, replicate 1
[8] = peptide 30, P75/P76 experiment 2, replicate 2
[9] = peptide 30, P75/P76 experiment 2, replicate 3
[10] = peptide 30, P75/P76 experiment 3, replicate 1
[11] = peptide 30, P75/P76 experiment 3, replicate 2
[12] = peptide 30, P75/P76 experiment 3, replicate 3
[13] = peptide 50, P75/P76 experiment 1, replicate 2
[14] = peptide 50, P75/P76 experiment 1, replicate 3
[15] = peptide 50, P75/P76 experiment 2, replicate 1
[16] = peptide 50, P75/P76 experiment 2, replicate 2
[17] = peptide 50, P75/P76 experiment 2, replicate 3
[18] = peptide 50, P75/P76 experiment 3, replicate 1
[19] = peptide 50, P75/P76 experiment 3, replicate 2
[20] = peptide 50, P75/P76 experiment 3, replicate 3

COc1ccc(S(=O)(=O)N(CC(=O)NO)CC(C)C)cc1 [NNGH, N-Isobutyl-N-(4-methoxyphenylsulfonyl)glycyl hydroxamic acid]
MMP-2 enzymatic activity, percent of control [1]: 11.2096 and 16.193

CC(=O)NCC(=O)N[C@@H](CCCNC(=N)N)C(=O)NCC(=O)N[C@@H](CCCCN)C(=O)N[C@H]1CSSC[C@@H](C(=O)N[C@@H](CC(C)C)C(=O)N[C@@H](CO)C(=O)N[C@@H](CCCNC(=N)N)C(N)=O)NC(=O)[C@H](CCC(N)=O)NC(=O)[C@@H]2CCCN2C(=O)CNC(=O)[C@H](Cc2ccc(O)cc2)NC1=O [P75, Ac-[Ser^35,Cyc(28,33)]Ctx(24–36)-NH2] (Ac-GRGKCYGPQCLSR-NH2; disulfide 5-10)
Kd [2]: 330 ± 146 µM
Dtm (ΔTm) [3, 4]: 1.067
Dtm (ΔTm) [3, 5]: 1.067
Dtm (ΔTm) [3, 6]: 1.367
Dtm (ΔTm) [3, 7]: 0.6
Dtm (ΔTm) [3, 8]: 0.6
Dtm (ΔTm) [3, 9]: 0.6
Dtm (ΔTm) [3, 10]: 0.2
Dtm (ΔTm) [3, 11]: -0.4
Dtm (ΔTm) [3, 12]: -0.1
Dtm (ΔTm), average ([3]; peptide 50 (µM per method)): 0.7556

CC(=O)N[C@@H](CCCCN)C(=O)N[C@H]1CSSC[C@@H](C(=O)N[C@@H](CC(C)C)C(N)=O)NC(=O)[C@H](CCC(N)=O)NC(=O)[C@@H]2CCCN2C(=O)CNC(=O)[C@H](Cc2ccc(O)cc2)NC1=O [P78, Ac-[Cyc(28,33)]Ctx(27–34)-NH2] (Ac-KCYGPQCL-NH2; disulfide 2-7)
Kd [2]: 267 ± 103 µM

Ac-[Cys^26,Ser^28,33,Cyc(26,35)]Ctx(24–36)-NH2 [P76]
inhibition of MMP-2 enzymatic activity (Fig 10B) ([1]; peptides at 1 µM, 50 µM and 100 µM, one-way ANOVA vs control): not statistically significant
ΔTm ± SD, change in melting temperature of MMP-2 ([3]; 1 µM MMP-2, 30 µM (Ctx) or 50 µM (P75 and P76) peptide, PBS pH 7.1, SYPRO-Orange, average and SD of n ≥ 3, SD): 0.63 ± 0.36 °C
Dtm (ΔTm), average ([3]; peptide 30 (µM per method)): 0.6556
Dtm (ΔTm) [3, 4]: -0.7333
Tm of MMP-2 with peptide [3, 4]: 45.7 °C
Dtm (ΔTm) [3, 5]: -0.4333
Tm of MMP-2 with peptide [3, 5]: 46 °C
Dtm (ΔTm) [3, 6]: 0.1667
Tm of MMP-2 with peptide [3, 6]: 46.6 °C
Dtm (ΔTm) [3, 7]: 1.8
Tm of MMP-2 with peptide [3, 7]: 48.7 °C
Dtm (ΔTm) [3, 8]: 1.5
Tm of MMP-2 with peptide [3, 8]: 48.4 °C
Dtm (ΔTm) [3, 9]: 1.8
Tm of MMP-2 with peptide [3, 9]: 48.7 °C
Dtm (ΔTm) [3, 10]: 0.5
Tm of MMP-2 with peptide [3, 10]: 47.8 °C
Dtm (ΔTm) [3, 11]: 0.5
Tm of MMP-2 with peptide [3, 11]: 47.8 °C
Dtm (ΔTm) [3, 12]: 0.8
Tm of MMP-2 with peptide [3, 12]: 48.1 °C
Dtm (ΔTm), average ([3]; peptide 50 (µM per method)): 0.6222
Tm of MMP-2 with peptide ([3]; peptide 50, P75/P76 experiment 1, replicate 1): 47.8 °C
Dtm (ΔTm) [3, 13]: 0.6
Tm of MMP-2 with peptide [3, 13]: 47.8 °C
Dtm (ΔTm) [3, 14]: 0.6
Tm of MMP-2 with peptide [3, 14]: 47.8 °C
Dtm (ΔTm) [3, 15]: 0.5
Tm of MMP-2 with peptide [3, 15]: 47.4 °C
Dtm (ΔTm) [3, 16]: 1.2
Tm of MMP-2 with peptide [3, 16]: 48.1 °C
Dtm (ΔTm) [3, 17]: 1.2
Tm of MMP-2 with peptide [3, 17]: 48.1 °C
Dtm (ΔTm) [3, 18]: 0.2
Tm of MMP-2 with peptide [3, 18]: 47.5 °C
Dtm (ΔTm) [3, 19]: 0.5
Tm of MMP-2 with peptide [3, 19]: 47.8 °C
Dtm (ΔTm) [3, 20]: 0.2
Tm of MMP-2 with peptide [3, 20]: 47.5 °C
